Reference: patent publication US20250057958A1, “CYTOTOXICITY TARGETING CHIMERAS FOR CCR2-EXPRESSING CELLS” (GLAXOSMITHKLINE INTELLECTUAL PROPERTY DEVELOPMENT LIMITED, priority 2022, published 2025)

Legend:
[1] = target: human alpha1 nicotinic acetylcholine (nACh) receptor (Homo sapiens, UniProt P02708+Q07001); assay: Nicotinic acetylcholine receptor antagonism assay (IONFlux automated patch clamp); format: cell-based; conditions: for Emax at 33.3 µM: maximum percentage antagonism at highest concentration tested, read-out: Maximum Response (%); for IC50: nAChR antagonism, stimulated with ACh, average if more than one run
From the text: Cells expressing human alpha1 nicotinic acetylcholine (nACh) receptor (nAChR) were washed and dissociated using Trypsin containing buffer. Cells were then washed and seeded at a density of 3-5 million cells/mL and allowed to grow for 3 days. […] The receptor was then stimulated via addition of acetylcholine (ACh) and activation of the receptor was monitored via the IONFlux automated patch clamp system. IonFlux Data Analyzer software was utilized to perform leak subtraction and measure (min) peak current amplitude.
Data processing: (1) Current values recorded for vehicle only applications in individual traps/patterns were subtracted from corresponding current amplitude values for control, test article and control+test article. (2) Control response was calculated as % of the average response of the 3rd out of total 3 ACh (10 mM) applications alone. In rare situations, if the 3rd ACh response was obscured due to technical artifacts, the 2nd and/or 1st ACh (10 mM) application was considered as control. The peak current amplitude generated in the presence of each test article concentration was then used to calculate the % inhibition as compared to control response (10 mM ACh alone). These estimates were further corrected for vehicle response and run down corrected by normalizing with time matched control responses (10 mM ACh alone). The corrected percentages were then fit with a non-linear function in GraphPad Prism 6 (or later versions) to determine the IC50.
Exclusion criteria: (i) any n's with poor recording quality, (ii) control current amplitude <500 pA or (iii) significant outliers, as determined by the Grubbs' test.
ARMs compounds of Formula (I) of the invention were tested for antagonism of the nAChR in the above assay in […] experimental runs and the results are shown in Table 5 below. Antagonistic activity of the compounds of Formula (I) of the invention is reported as an IC50 value (half maximal inhibitory concentration) and the maximum percentage antagonism observed at the highest concentration of compound of Formula (I) tested, as indicated in Table 5. For compounds tested in more than one experimental run, the IC50 value is reported as an average.

[2] = system: CCR2 expressing cells (CD11b+Ly6c+Hi monocytes); assay: In vivo depletion assay (flow cytometry of peripheral blood); design: species or system human CCR2 (hCCR2) knock-in mice; conditions: IV bolus 0.1 mpk compound + 10 mpk anti-cotinine antibody (mouse IgG2a Fc), 48 hours
Method: Human CCR2 (hCCR2) knock-in mice (C57 background) were dosed intravenously with a PBS solution containing a compound of Formula (I) to measure depletion of CCR2 expressing cells in peripheral blood. Peripheral blood from IV dosed mice was also analyzed to determine PK properties of the compounds of Formula (I).
Formulations preparation: On the day of experiment, the stock solution of the compound of Formula (I) was removed from storage at −20° C. and thawed at room temperature. Anti-cotinine antibody having a heavy chain sequence of SEQ ID NO: 13 and a light chain sequence of SEQ ID NO: 14 (rabbit variable region sequence with mouse IgG2a Fc domain), if required was removed from storage at −80° C. and thawed at room temperature. Antibody vials were immediately transferred into wet ice after thawing. Compounds of Formula (I) were further diluted in DMSO as per experimental requirements.
Formulation composition: The formulation composition was Saline: DMSO: PBS. Saline was added based on the quantity required and then stock solution of the compound of Formula (1) prepared in DMSO, followed by addition of antibody in PBS. Formulations were incubated at room temperature for 30 minutes before administration to the mouse. DMSO was used at 1 to 2% (v/v) in the final formulation.
Administration to Animal: Solution formulation of antibody and compound of Formula (I) was injected (bolus injection) to the restrained mouse in the right/left lateral tail vein. Animals were dosed with 0.1 milligram per kilogram (mpk) of the compound of Formula (I) and 10 mpk of the anti-cotinine antibody.
Terminal bleeding at end of experiment (48 hr): Approximately 250 μL of blood in K2EDTA tube and approximately 250 μL of blood in SST (serum separation tube) was collected from each mouse through retro-orbital bleeding under deep isoflurane anesthesia. After bleeding, each mouse was sacrificed by cervical dislocation. The blood distribution at termination was determined as follows: • For PK: 50 μL of K2EDTA blood was transferred to another tube for PK • Flow cytometry: Remaining blood (˜200 μL) was used for flow cytometry analysis. • For serum collection: serum separator tubes (BD) were centrifuged at 4° C., 5000 rpm for 15 minutes. Approximately 100 μL serum was separated and stored at −80° C. for further usage. • Blood drug concentration: Samples collected at the various timepoints (0.25 hr, 2 hr, 24 and 48 hr) were analyzed to determine blood drug concentration.
Flow cytometry analysis: CCR2 depletion in peripheral blood was determined by flow cytometry. Briefly, peripheral blood was collected from all animals at the end of study termination and processed. […]
Percent depletion of CD11b+Ly6c+Hi cells and CCR2 expression for the different treatment groups was determined. […]

Chain of human alpha1 nicotinic acetylcholine (nACh) receptor (P02708 21-457): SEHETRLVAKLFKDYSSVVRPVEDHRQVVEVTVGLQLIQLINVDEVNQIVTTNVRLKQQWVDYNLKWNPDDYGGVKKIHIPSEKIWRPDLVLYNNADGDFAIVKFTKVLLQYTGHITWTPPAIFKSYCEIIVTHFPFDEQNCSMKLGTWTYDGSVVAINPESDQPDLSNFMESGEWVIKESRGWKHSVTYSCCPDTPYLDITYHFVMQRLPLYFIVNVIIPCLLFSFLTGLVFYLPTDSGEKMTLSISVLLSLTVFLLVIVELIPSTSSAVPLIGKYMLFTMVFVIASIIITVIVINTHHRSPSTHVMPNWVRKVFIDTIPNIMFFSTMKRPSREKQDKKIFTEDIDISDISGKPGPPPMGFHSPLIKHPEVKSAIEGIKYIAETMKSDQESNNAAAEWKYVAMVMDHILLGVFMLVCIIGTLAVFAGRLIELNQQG
Chain of human alpha1 nicotinic acetylcholine (nACh) receptor (P11230 24-501 partner): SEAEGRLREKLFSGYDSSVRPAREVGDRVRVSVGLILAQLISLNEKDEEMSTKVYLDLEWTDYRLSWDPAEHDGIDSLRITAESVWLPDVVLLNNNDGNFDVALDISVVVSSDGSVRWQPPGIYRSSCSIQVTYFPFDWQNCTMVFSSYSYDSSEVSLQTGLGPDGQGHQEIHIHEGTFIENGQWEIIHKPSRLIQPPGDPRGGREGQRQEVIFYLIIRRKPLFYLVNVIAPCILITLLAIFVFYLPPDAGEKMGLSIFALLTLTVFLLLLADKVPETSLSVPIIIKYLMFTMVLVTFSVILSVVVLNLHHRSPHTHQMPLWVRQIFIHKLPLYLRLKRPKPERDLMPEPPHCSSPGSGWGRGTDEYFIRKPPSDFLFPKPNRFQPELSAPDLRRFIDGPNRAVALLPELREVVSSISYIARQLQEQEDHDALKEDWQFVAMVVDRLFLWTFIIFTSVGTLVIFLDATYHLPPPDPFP
Chain of human alpha1 nicotinic acetylcholine (nACh) receptor (Q07001 22-517): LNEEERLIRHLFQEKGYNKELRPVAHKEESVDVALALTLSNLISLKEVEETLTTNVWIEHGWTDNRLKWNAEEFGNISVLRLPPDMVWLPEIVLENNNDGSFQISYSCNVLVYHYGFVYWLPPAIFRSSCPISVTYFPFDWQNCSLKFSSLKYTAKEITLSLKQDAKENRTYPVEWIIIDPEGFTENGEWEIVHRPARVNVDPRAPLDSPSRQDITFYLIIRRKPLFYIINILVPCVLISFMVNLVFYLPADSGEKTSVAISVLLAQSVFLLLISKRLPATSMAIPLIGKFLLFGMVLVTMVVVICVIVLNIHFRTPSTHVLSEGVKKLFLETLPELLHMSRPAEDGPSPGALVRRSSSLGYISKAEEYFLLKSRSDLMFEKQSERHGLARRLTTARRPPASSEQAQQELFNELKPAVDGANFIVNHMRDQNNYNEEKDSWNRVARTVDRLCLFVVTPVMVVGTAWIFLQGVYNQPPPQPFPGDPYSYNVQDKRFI

| Compound | Emax at 33.3 µM [1] [%] | IC50 [1] [µM] | % Depletion of CCR2 expressing cells [2] [%] |
| --- | --- | --- | --- |
| CC(=O)N[C@@H]1C[C@H](NC(C)(C)C)CC[C@@H]1N1CC[C@H](Nc2nc([C@H]3CC[C@H](NC(=O)[C@H]4CC[C@H](NC(=O)CCCO[C@H]5CC[C@H](OCCNC(=O)[C@H]6CC(=O)N(C)[C@@H]6c6cccnc6)CC5)CC4)CC3)nc3ccc(C(F)(F)F)cc23)C1=O [Example 11, (2S,3S)-N-(2-(((1R,4S)-4-(4-(((1S,4R)-4-(((1S,4R)-4-(4-(((S)-1-((1S,2R,4R)-2-Acetamido-4-(tert-butylamino)cyclohexyl)-2-oxopyrrolidin-3-yl)amino)-6-(trifluoromethyl)quinazolin-2-yl)cyclohexyl)carbamoyl)cyclohexyl)amino)-4-oxobutoxy)cyclohexyl)oxy)ethyl)-1-methyl-5-oxo-2-(pyridin-3-yl)pyrrolidine-3-carboxamide] | 47 | > 33.3 | 95.41 |
| CC(=O)N[C@@H]1C[C@H](NC(C)(C)C)CC[C@@H]1N1CC[C@H](Nc2nc(CCCCNC(=O)[C@H]3CC[C@H](NC(=O)CCCO[C@H]4CC[C@H](OCCNC(=O)[C@H]5CC(=O)N(C)[C@@H]5c5cccnc5)CC4)CC3)nc3ccc(C(F)(F)F)cc23)C1=O [Example 3, (2S,3S)-N-(2-(((1R,4S)-4-(4-(((1S,4R)-4-((4-(4-(((S)-1-((1S,2R,4R)-2-Acetamido-4-(tert-butylamino)cyclohexyl)-2-oxopyrrolidin-3-yl)amino)-6-(trifluoromethyl)quinazolin-2-yl)butyl)carbamoyl)cyclohexyl)amino)-4-oxobutoxy)cyclohexyl)oxy)ethyl)-1-methyl-5-oxo-2-(pyridin-3-yl)pyrrolidine-3-carboxamide] | 38 | > 33.3 | 84 |
| CC(=O)N[C@@H]1C[C@H](NC(C)(C)C)CC[C@@H]1N1CC[C@H](Nc2nc([C@H]3CC[C@@H](NC(=O)[C@H]4CC[C@H](NC(=O)CCCO[C@H]5CC[C@H](OCCNC(=O)[C@H]6CC(=O)N(C)[C@@H]6c6cccnc6)CC5)CC4)CC3)nc3ccc(C(F)(F)F)cc23)C1=O [Example 10, (2S,3S)-N-(2-(((1R,4S)-4-(4-(((1R,4R)-4-(((1R,4S)-4-(4-(((S)-1-((1S,2R,4R)-2-Acetamido-4-(tert-butylamino)cyclohexyl)-2-oxopyrrolidin-3-yl)amino)-6-(trifluoromethyl)quinazolin-2-yl)cyclohexyl)carbamoyl)cyclohexyl)amino)-4-oxobutoxy)cyclohexyl)oxy)ethyl)-1-methyl-5-oxo-2-(pyridin-3-yl)pyrrolidine-3-carboxamide] | 28 | > 33.3 | 89.71 |
